Patent US20070122830A1, “Prohibitin-directed diagnostics and therapeutics for cancer and chemotherapeutic drug resistance” (Aurelium BioPharma Inc., priority 2005, published 2007)

Key:
Assay type in all cases: cell-based, human
prohibitin [1] = assay: Prohibitin silencing by siRNA in MCF-7 cells, anti-prohibitin immunoblot; details: MCF-7 cell line; FIG. 6
Source text: (§1) To establish the importance of prohibitin to the expression of the drug-resistant phenotype in MDA cell lines, prohibitin expression was silenced using RNAi. Briefly, the following siRNA duplexes targeting the human prohibitin mRNA were designed and purchased either from Ambion (Austin, Tex.) or Invitrogen (Carlsbad, Calif.). The siRNA duplex sequences corresponding to nucleotides 425 through 443 (GenBank SEQ ID NUMBER: U49725.1) targeting the start of the prohibitin mRNA transcript were:
(§2) For a typical siRNA transfection, 1 nmole of the annealed siRNA duplex was mixed with 1.4 ml of Opti-MEM reagent (Invitrogen). In another tube, […] of Oligofectamine reagent (Invitrogen, Carlsbad, Calif.) was mixed with […] of Opti-MEM. The two solutions were combined and mixed gently by inversion and incubated for 20 min. at RT. The resulting solution was added to the cultured cells drop by drop in a 10 cm dish (cells are approximately 40-50% confluent). The next day the transfected cells were trypsinized and seeded in 6 or 96-well plates and further incubated for the indicated amount of time (assay dependent) before further analysis.
(§3) Targeted silencing of prohibitin was performed as described in Example 2 above.

prohibitin [2] = assay: Prohibitin silencing by siRNA in SKOV3 cells, anti-prohibitin immunoblot; details: for decrease in prohibitin: FIG. 7
Source text: as §1, §2, §3

prohibitin [3] = assay: Prohibitin silencing by siRNA in MDA cells, anti-prohibitin immunoblot; details: for decrease in prohibitin expression: MDA cell lines
Description: Cell extracts from drug-resistant and drug-sensitive cell lines were prepared to determine the expression levels of potential therapeutic targets in drug-resistant cells. Briefly, cultured cells were rinsed 2 times with 15 ml of 1× phosphate buffered saline (“PBS”), and harvested by trypsinization. Cells were collected in a 15 ml tube by centrifugation at 1000 rpm for 5 min. The supernatant was discarded and cells were washed 3 times with 1×PBS. The cell pellet was transferred to an Eppendorf tube and […] of 1×PBS were added. Cells were centrifuged 5 min. at 3000 rpm in an Eppendorf Microfuge. The supernatant was removed and cells were then lysed in […] of lysis buffer (50 mM Tris, pH 7.5, 150 mM NaCl, 1% NP-40, 0.5% sodium deoxycholate), containing protease inhibitors ([…], […] benzamidine, 0.2 mM PMSF) and incubated 5 min. on ice. The cell lysates were then centrifuged at 14,000×g for 10 min. at 4° C. The protein concentration of the supernatants was determined by the DC Protein assay (BioRad, Hercules, Calif.). Samples were subsequently stored at −80° C. until ready for analysis.
Total cell lysates were thawed and then incubated with 1 U/ml DNAse I (New England BioLabs, Inc., Beverly, Mass.), 5 mM MgCl2 (final concentration) for 2 hours on ice. Their protein concentration was determined using the RC DC protein assay kit from BIORAD according to manufacturer's instructions (BioRad Laboratories, Hercules, Calif.) (see also Lowry et al., (1951) J. Biol. Chem. 193: 265-275). Equivalent amounts of proteins ([…]) from total cell extracts from sensitive (MCF7, MDA-MB-231) and chemotherapeutic drug-resistant cells (MCF7/AR and MDA-MB-231/AR) were analyzed by polyacrylamide gel electrophoresis followed by blotting to a nitrocellulose membrane. The membrane was subsequently contacted with an anti-prohibitin antibody obtained from Abcam, Inc., Cambridge, Mass. The immunoblots were incubated with an anti-IgG secondary antibody and visualized using horseradish peroxidase using the manufacturer's protocol (Bio-Rad Laboratories, Hercules, Calif.).
as §1, with “The siRNA duplex sequences corresponding to nucleotides 425 through 443 (GenBank SEQ ID NUMBER: U49725.1) targeting the start of the prohibitin mRNA transcript were:” left out
The siRNA duplex was predesigned, synthesized with 3′TT overhangs, purified and annealed by Ambion (Austin, Tex.). […] Transfection efficiencies were typically evaluated 24-48 hrs post transfection using a fluorescence microscope. […]

## prohibitin siRNA: siRNA duplex to human prohibitin mRNA nt 425-443; sense 5′-GGAAGUGGUCUGUCUGUUAtt-3′, antisense 5′-UAACAGACAGACCACUUCCtt-3′ (sense GGAAGUGGUCUGUCUGUUATT; antisense UAACAGACAGACCACUUCCTT; chemistry not given here)
Prohibitin [1]
  decrease in prohibitin expression as compared to mock siRNA: 37%
Prohibitin [2]; FIG. 8
  repeat of prohibitin silencing: confirmed, albeit with increased prohibitin expression
Prohibitin [2]; six days after treatment
  decrease in prohibitin: 71%
Prohibitin [2]; three days after treatment
  decrease in prohibitin: ~93%
Prohibitin [3]; four days post-treatment, FIG. 2
  decrease in prohibitin expression: 43%
Prohibitin [3]; fourth day after treatment, FIG. 3
  decrease in prohibitin expression: 58%
Prohibitin [3]; two days post-treatment, FIG. 2
  decrease in prohibitin expression: 79%
Prohibitin [3]; MDA cells, FIG. 5
  additional decrease in prohibitin expression compared to mock silencing: 60%
